In US9532990B2 (Zhejiang DTRM Biopharma Co. Ltd., priority 2014, dated 2017):
pIC50: −log10 of the molar value. Like-named read-outs stand apart in the source and are kept apart here.

Target: BTK wild type (Homo sapiens (Human), UniProt Q06187)
Assay: Inhibition assay of BTK kinase activity (HTRF)
Type: biochemical
Method: Inhibition Assay of BTK Kinase Activity:
The enzyme reaction mixture of BTK wild type standard HTRF assay contained 1 nM BTK wild type, 1 μM biotin-TK1 peptide, and 30 μM ATP in a buffer. The enzyme reaction were carried out at room temperature for 60 minutes. […] The plates were incubated at room temperature for 60 minutes and then read in the Envision plate reader.

[1] = all compounds with IC50 of less 10 nM, read-out: IC50 (BTK)

BTK wild type, sequence (Q06187 whole entry): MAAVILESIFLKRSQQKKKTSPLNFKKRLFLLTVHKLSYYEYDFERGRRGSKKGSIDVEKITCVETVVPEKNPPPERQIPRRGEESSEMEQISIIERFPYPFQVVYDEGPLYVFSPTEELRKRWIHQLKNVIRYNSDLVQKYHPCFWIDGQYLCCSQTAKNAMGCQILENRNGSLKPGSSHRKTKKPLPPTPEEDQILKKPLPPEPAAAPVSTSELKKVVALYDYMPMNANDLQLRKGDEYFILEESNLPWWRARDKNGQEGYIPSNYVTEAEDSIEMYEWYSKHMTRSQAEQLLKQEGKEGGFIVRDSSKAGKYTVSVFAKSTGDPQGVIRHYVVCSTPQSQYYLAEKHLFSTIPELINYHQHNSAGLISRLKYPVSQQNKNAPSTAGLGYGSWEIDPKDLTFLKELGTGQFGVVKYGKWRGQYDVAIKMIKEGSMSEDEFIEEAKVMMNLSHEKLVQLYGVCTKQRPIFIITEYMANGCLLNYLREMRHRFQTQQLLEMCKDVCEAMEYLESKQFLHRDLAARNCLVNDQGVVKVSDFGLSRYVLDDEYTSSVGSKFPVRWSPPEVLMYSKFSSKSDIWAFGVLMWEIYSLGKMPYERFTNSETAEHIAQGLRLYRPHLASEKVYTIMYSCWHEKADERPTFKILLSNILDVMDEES

Row | SMILES | pIC50 (read-out: BTK IC50) | pIC50 [1]
1 | CC(C)(C)OC(=O)N1CCCC(n2nc(-c3ccc(Oc4ccccc4[N+](=O)[O-])cc3F)c3c(N)ncnc32)C1 (stereo not shown) [Compound 10, tert-butyl 3-(4-amino-3-(2-fluoro-4-(2-nitrophenoxy)phenyl)-1H-pyrazolo[3,4-d]pyrimidin-1-yl)piperidine-1-carboxylate] | 5.71 | –
2 | C=CC(=O)N[C@@H]1CC[C@@H](n2nc(-c3ccc(Oc4c(F)c(F)cc(F)c4F)cc3F)c3c(N)ncnc32)C1 [Compound 25, N-((1r,3r)-3-(4-amino-3-(2-fluoro-4-(2,3,5,6-tetrafluorophenoxy)phenyl)-1H-pyrazolo[3,4-d]pyrimidin-1-yl)cyclopentyl)acrylamide] | 7.77 | –
3 | C=CC(=O)N1CC[C@@H](n2nc(-c3ccc(Oc4ccnc5ccccc45)cc3F)c3c(N)ncnc32)C1 [Compound 90, 1-((R)-3-(4-amino-3-(2-fluoro-4-(quinolin-4-yloxy)phenyl)-1H-pyrazolo[3,4-d]pyrimidin-1-yl)pyrrolidin-1-yl)prop-2-en-1-one] | 7.82 | –
4 | Nc1ncnc2c1c(-c1ccc(Oc3c(F)c(F)cc(F)c3F)cc1F)nn2C1CCCN(C(=O)c2cccnc2)C1 (stereo not shown) [Compound 60, (3-(4-amino-3-(2-fluoro-4-(2,3,5,6-tetrafluorophenoxy)phenyl)-1H-pyrazolo[3,4-d]pyrimidin-1-yl)piperidin-1-yl)(pyridin-3-yl)methanone] | 6.24 | –
5 | Nc1ncnc2c1c(-c1ccc(Oc3c(F)c(F)cc(F)c3F)cc1F)nn2[C@@H]1CCCN(C(=O)CF)C1 [Compound 107, 1-((R)-3-(4-amino-3-(2-fluoro-4-(2,3,5,6-tetrafluorophenoxy)phenyl)-1H-pyrazolo[3,4-d]pyrimidin-1-yl)piperidin-1-yl)-2-fluoroethanone] | 7.00 | –
6 | C=CS(=O)(=O)N1CCCC(n2nc(-c3ccc(C(=O)c4cccc(F)c4)cc3F)c3c(N)ncnc32)C1 (stereo not shown) [Compound 8, (4-(4-amino-1-(1-(vinylsulfonyl)piperidin-3-yl)-1H-pyrazolo[3,4-d]pyrimidin-3-yl)-3-fluorophenyl)(3-fluorophenyl)methanone] | 8.70 | –
7 | Nc1ncnc2c1c(-c1ccc(Oc3c(F)c(F)cc(F)c3F)cc1F)nn2[C@@H]1CCN(C(=O)C(=O)C2CC2)C1 [Compound 78, 1-((R)-3-(4-amino-3-(2-fluoro-4-(2,3,5,6-tetrafluorophenoxy)phenyl)-1H-pyrazolo[3,4-d]pyrimidin-1-yl)pyrrolidin-1-yl)-2-cyclopropylethane-1,2-dione] | 5.72 | –
8 | C=CS(=O)(=O)N1CC[C@@H](n2nc(-c3ccc(Oc4c(F)c(F)cc(F)c4F)cc3F)c3c(N)ncnc32)C1 [Compound 116, 3-(2-fluoro-4-(2,3,5,6-tetrafluorophenoxy)phenyl)-1-((R)-1-(vinylsulfonyl)pyrrolidin-3-yl)-1H-pyrazolo[3,4-d]pyrimidin-4-amine] | 9.00 | > 8.00
9 | C=CC(=O)N1CCCC(Cn2nc(-c3ccc(Oc4c(F)c(F)cc(F)c4F)cc3F)c3c(N)ncnc32)C1 (stereo not shown) [Compound 31, 1-(3-((4-amino-3-(2-fluoro-4-(2,3,5,6-tetrafluorophenoxy)phenyl)-1H-pyrazolo[3,4-d]pyrimidin-1-yl)methyl)piperidin-1-yl)prop-2-en-1-one] | 7.82 | –
10 | C=CC(=O)N1CCC(n2nc(-c3ccc(Oc4c(F)c(F)cc(F)c4F)cc3F)c3c(N)ncnc32)CC1 [Compound 27, 1-(4-(4-amino-3-(2-fluoro-4-(2,3,5,6-tetrafluorophenoxy)phenyl)-1H-pyrazolo[3,4-d]pyrimidin-1-yl)piperidin-1-yl)prop-2-en-1-one] | 6.65 | –
11 | Nc1ncnc2c1c(-c1ccc(Oc3c(F)c(F)cc(F)c3F)cc1F)nn2[C@H]1CC[C@H](N2C(=O)C=CC2=O)C1 [Compound 37, 1-((1 S,3S)-3-(4-amino-3-(2-fluoro-4-(2,3,5,6-tetrafluorophenoxy)phenyl)-1H-pyrazolo[3,4-d]pyrimidin-1-yl)cyclopentyl)-1H-pyrrole-2,5-dione] | 7.00 | –
12 | Nc1ncnc2c1c(-c1ccc(Oc3c(F)c(F)cc(F)c3F)cc1F)nn2C1CCCN(C(=O)C2CNC(=O)S2)C1 (stereo not shown) [Compound 63, 5-(3-(4-amino-3-(2-fluoro-4-(2,3,5,6-tetrafluorophenoxy)phenyl)-1H-pyrazolo[3,4-d]pyrimidin-1-yl)piperidine-1-carbonyl)thiazolidin-2-one] | 6.34 | –
13 | C=CC(=O)NC1CCC(Cn2nc(-c3ccc(Oc4c(F)c(F)cc(F)c4F)cc3F)c3c(N)ncnc32)C1 (stereo not shown) [Compound 32, N-(3-((4-amino-3-(2-fluoro-4-(2,3,5,6-tetrafluorophenoxy)phenyl)-1H-pyrazolo[3,4-d]pyrimidin-1-yl)methyl)cyclopentyl)acrylamide] | 5.14 | –
14 | C=CC(=O)N1CCCC(n2nc(-c3ccc(C(=O)c4ccccc4F)cc3F)c3c(N)ncnc32)C1 (stereo not shown) [Compound 4, 1-(3-(4-amino-3-(2-fluoro-4-(2-fluorobenzoyl)phenyl)-1H-pyrazolo[3,4-d]pyrimidin-1-yl)piperidin-1-yl)prop-2-en-1-one] | 8.70 | –
15 | C=CC(=O)N1CC[C@@H](n2nc(-c3ccc(Oc4ncccn4)cc3F)c3c(N)ncnc32)C1 [Compound 95, 1-((R)-3-(4-amino-3-(2-fluoro-4-(pyrimidin-2-yloxy)phenyl)-1H-pyrazolo[3,4-d]pyrimidin-1-yl)pyrrolidin-1-yl)prop-2-en-1-one] | 8.30 | > 8.00
16 | Nc1ncnc2c1c(-c1ccc(Oc3c(F)c(F)cc(F)c3F)cc1F)nn2[C@@H]1CCN(C(=O)CCCl)C1 [Compound 58, 1-((R)-3-(4-amino-3-(2-fluoro-4-(2,3,5,6-tetrafluorophenoxy)phenyl)-1H-pyrazolo[3,4-d]pyrimidin-1-yl)pyrrolidin-1-yl)-3-chloropropan-1-one] | 6.83 | –
17 | Nc1ncnc2c1c(-c1ccc(Oc3c(F)c(F)cc(F)c3F)cc1F)nn2[C@@H]1CCCN(C(=O)C(Cl)Cl)C1 [Compound 101, 1-((R)-3-(4-amino-3-(2-fluoro-4-(2,3,5,6-tetrafluorophenoxy)phenyl)-1H-pyrazolo[3,4-d]pyrimidin-1-yl)piperidin-1-yl)-2,2-dichloroethanone] | 6.28 | –
18 | C=CC(=O)N1CCCC(n2nc(-c3ccc(C(=O)c4cccc(F)c4)c(F)c3)c3c(N)ncnc32)C1 (stereo not shown) [Compound 3, 1-(3-(4-amino-3-(3-fluoro-4-(3-fluorobenzoyl)phenyl)-1H-pyrazolo[3,4-d]pyrimidin-1-yl)piperidin-1-yl)prop-2-en-1-one] | 8.00 | –
19 | Nc1ncnc2c1c(-c1ccc(Oc3c(F)c(F)cc(F)c3F)cc1F)nn2[C@@H]1CCN(C(=O)C(Cl)Cl)C1 [Compound 103, 1-((R)-3-(4-amino-3-(2-fluoro-4-(2,3,5,6-tetrafluorophenoxy)phenyl)-1H-pyrazolo[3,4-d]pyrimidin-1-yl)pyrrolidin-1-yl)-2,2-dichloroethanone] | 6.26 | –
20 | CN(C)C/C=C/C(=O)N1CC[C@@H](n2nc(-c3ccc(Oc4c(F)c(F)cc(F)c4F)cc3F)c3c(N)ncnc32)C1 [Compound 91, (E)-1-((R)-3-(4-amino-3-(2-fluoro-4-(2,3,5,6-tetrafluorophenoxy)phenyl)-1H-pyrazolo[3,4-d]pyrimidin-1-yl)pyrrolidin-1-yl)-4-(dimethylamino)but-2-en-1-one] | 8.52 | > 8.00
21 | C=CC(=O)N1CCC(Cn2nc(-c3ccc(Oc4c(F)c(F)cc(F)c4F)cc3F)c3c(N)ncnc32)C1 (stereo not shown) [Compound 29, 1-(3-((4-amino-3-(2-fluoro-4-(2,3,5,6-tetrafluorophenoxy)phenyl)-1H-pyrazolo[3,4-d]pyrimidin-1-yl)methyl)pyrrolidin-1-yl)prop-2-en-1-one] | 7.59 | –
22 | CC(C)(CO)C(=O)C(=O)N1CC[C@@H](n2nc(-c3ccc(Oc4c(F)c(F)cc(F)c4F)cc3F)c3c(N)ncnc32)C1 [Compound 80, 1-((R)-3-(4-amino-3-(2-fluoro-4-(2,3,5,6-tetrafluorophenoxy)phenyl)-1H-pyrazolo[3,4-d]pyrimidin-1-yl)pyrrolidin-1-yl)-4-hydroxy-3,3-dimethylbutane-1,2-dione] | 5.89 | –
23 | C=CC(=O)N1CC[C@@H](n2nc(-c3ccc(Oc4cccc(F)c4)cc3F)c3c(N)ncnc32)C1 [Compound 94, 1-((R)-3-(4-amino-3-(2-fluoro-4-(3-fluorophenoxy)phenyl)-1H-pyrazolo[3,4-d]pyrimidin-1-yl)pyrrolidin-1-yl)prop-2-en-1-one] | 9.00 | > 8.00
24 | Nc1ncnc2c1c(-c1ccc(Oc3c(F)c(F)cc(F)c3F)cc1F)nn2[C@@H]1CCN(C(=O)/C=C/c2ccccc2)C1 [Compound 92, (E)-1-((R)-3-(4-amino-3-(2-fluoro-4-(2,3,5,6-tetrafluorophenoxy)phenyl)-1H-pyrazolo[3,4-d]pyrimidin-1-yl)pyrrolidin-1-yl)-3-phenylprop-2-en-1-one] | 5.62 | –
25 | Cc1oncc1C(=O)N1CCCC(n2nc(-c3ccc(C(=O)c4cccc(F)c4)cc3F)c3c(N)ncnc32)C1 (stereo not shown) [Compound 6, (3-(4-amino-3-(2-fluoro-4-(3-fluorobenzoyl)phenyl)-1H-pyrazolo[3,4-d]pyrimidin-1-yl)piperidin-1-yl)(5-methylisoxazol-4-yl)methanone] | 6.86 | –
26 | CNC(=O)C(=O)N1CCCC(n2nc(-c3ccc(Oc4c(F)c(F)cc(F)c4F)cc3F)c3c(N)ncnc32)C1 (stereo not shown) [Compound 57, 2-(3-(4-amino-3-(2-fluoro-4-(2,3,5,6-tetrafluorophenoxy)phenyl)-1H-pyrazolo[3,4-d]pyrimidin-1-yl)piperidin-1-yl)-N-methyl-2-oxoacetamide] | 6.16 | –
27 | Nc1ncnc2c1c(-c1ccc(Oc3c(F)c(F)cc(F)c3F)cc1F)nn2[C@H]1CCCN(C(=O)C(Cl)Cl)C1 [Compound 102, 1-((S)-3-(4-amino-3-(2-fluoro-4-(2,3,5,6-tetrafluorophenoxy)phenyl)-1H-pyrazolo[3,4-d]pyrimidin-1-yl)piperidin-1-yl)-2,2-dichloroethanone] | 5.80 | –
